Where “and” joins values, the source holds several entries; their conditions need not be identical. Equal values may be shown once.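 In this assay, cells in 96-well plates receive the compound at five concentrations for 48 hours. Endpoints are linearly interpolated between the surrounding concentrations. Abbreviation: GI50, concentration required for 50% inhibition of growth. The concentration for full growth arrest is given as TGI.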
How the values were obtained:
Test in all cases: DTP human tumour cell line panel, 48 h
SF-539 CNS = system: SF-539 CNS
KM12 colon = system: KM12 colon
BT-549 breast = system: BT-549 breast
HT29 colon = system: HT29 colon
SW-620 colon = system: SW-620 colon
ACHN renal = system: ACHN renal
SF-268 CNS = system: SF-268 CNS
MCF7 breast = system: MCF7 breast

| Structure (SMILES) | GI50 (SF-539 CNS) | TGI (SF-539 CNS) | GI50 (KM12 colon) | TGI (KM12 colon) | GI50 (BT-549 breast) | TGI (BT-549 breast) | GI50 (HT29 colon) | TGI (HT29 colon) | GI50 (SW-620 colon) | TGI (SW-620 colon) | GI50 (ACHN renal) | TGI (ACHN renal) | GI50 (SF-268 CNS) | TGI (SF-268 CNS) | GI50 (MCF7 breast) | TGI (MCF7 breast) |
| --- | --- | --- | --- | --- | --- | --- | --- | --- | --- | --- | --- | --- | --- | --- | --- | --- |
| C=CCn1c(C)nc2ccc(Nc3nc(Nc4ccc(F)cc4)nc4ccccc34)cc21 | 12.3 µM | 25.7 µM | 4.07 µM | 16.4 µM | 3.35 µM | 18.1 µM | 3 µM | 13.3 µM | 2.8 µM | 10.7 µM | 1.99 µM | 4.31 µM | 8.69 µM | 27.8 µM |  |  |
| O=c1c2cc(F)ccc2sc2c(N3CCNCC3)nc3ccc(F)cc3c12 | 1.72 µM | 3.15 µM | 1.79 µM | 3.34 µM | 10.1 µM | 24.1 µM | 1.65 µM | 3.22 µM | 1.61 µM | 3.12 µM | 1.48 µM | 2.8 µM | 1.57 µM | 3.16 µM |  |  |
| CC[n+]1oc(C(=O)c2ccc(Cl)cc2)c(-c2ccccc2)c1-c1ccccc1.[Cl][Fe]([Cl])([Cl])[Cl] | > 100 µM | > 100 µM | 89.9 µM | > 100 µM |  |  | 41.8 µM | > 100 µM | > 100 µM | > 100 µM | 33.5 µM | 99.3 µM | 36.1 µM | > 100 µM | 17.4 µM | 65.5 µM |
| CCCCCCCCOC(=O)CC[C@@H](C)[C@H]1CC[C@H]2[C@@H]3[C@H](OC(=O)CCN)C[C@@H]4C[C@H](OC(=O)CCN)CC[C@]4(C)[C@H]3C[C@H](OC(=O)CCN)[C@]12C | 3.01 µM | 8.77 µM | 3.04 µM | 7.51 µM | 20.4 µM | 46.9 µM | 2.44 µM | 5.79 µM | 1.95 µM | 3.93 µM | 15.9 µM | 32.2 µM | 3.34 µM | 9.12 µM |  |  |
| Cn1c(-c2c(N)n(Nc3cccc(Cl)c3)c3nc(C#N)c(C#N)nc23)nc2ccccc21 | 1.38 µM | 10.3 µM | 9.57 µM | 26.1 µM | 0.0816 µM | 1.97 µM |  |  | 7.94 µM | > 50 µM | 5.44 µM | 15 µM | 10 µM | 35.6 µM | 4.96 µM | > 50 µM |
| O=C(O)c1ccc(NCn2nc(-c3ccccc3O)oc2=S)cc1 |  |  | > 100 µM | > 100 µM | 59.6 µM | > 100 µM | 38.6 µM | > 100 µM | 38.9 µM | > 100 µM | 27.7 µM | 72 µM | 96.4 µM | > 100 µM | 49.1 µM | > 100 µM |
| O=S(=O)(NC1=NCCN1C(=S)SN1CCn2c1nsc2=S)c1cccc2ccccc12 | 21.1 µM | 46 µM | 17.3 µM | 41.4 µM |  |  | 31.4 µM | > 100 µM | 33.2 µM | > 100 µM | 27.5 µM | > 100 µM | 23.3 µM | > 100 µM | 7.27 µM | 58 µM |
| COc1ccc(S(=O)(=O)N2CCN(C(=O)c3ccc(-c4ccccc4)cc3)CC2C(=O)NO)cc1 (stereo unspecified) | 1.98 µM | 4.22 µM |  |  | 2.48 µM | 6.69 µM | 0.889 µM | 12.5 µM |  |  | 3.28 µM and 20.6 µM | 12.5 µM and 99.5 µM |  |  | 0.714 µM | 3.2 µM |
| Cc1nc(N)nc2c1CCC(O)S2 (stereo unspecified) | 12.3 µM | 27.9 µM | 5.46 µM | 19.6 µM |  |  | 4.24 µM | 17.3 µM | 3.64 µM | 14.1 µM | 22 µM | > 100 µM | 4.84 µM | 25.6 µM | 3.02 µM | 10.4 µM |
| COc1cccc(/C(C#N)=C/c2nc3c(N4CCOCC4)nc(Cl)nc3n2C)c1 | 1.44 µM | 2.79 µM | 1.77 µM | 3.53 µM | 0.631 µM | 2.04 µM | 0.351 µM | 1.36 µM | 0.429 µM | 1.7 µM | 0.625 µM | 1.89 µM | 1.57 µM | 3.17 µM |  |  |
| O=C1/C(=C/c2cccc(Br)c2)COc2ccc(O)cc21 | 1.89 µM | 4.58 µM | 1.75 µM | 3.74 µM | 3.01 µM | 12.7 µM | 2.43 µM | 10.2 µM | 0.683 µM | 2.49 µM | 1.89 µM | 4.16 µM | 3.33 µM | 18.2 µM |  |  |
| COc1cc(C2SCCCCCCCCCCSC(c3ccc(O)c(OC)c3)SCCCCCCCCCCS2)ccc1O (stereo unspecified) |  |  |  | > 100 µM |  | > 100 µM |  | > 100 µM |  | > 100 µM |  | > 100 µM |  | > 100 µM |  | > 100 µM |
| O=C(/C=C/c1ccccc1)C(Br)C(Br)c1ccccc1 (stereo unspecified) | 1.87 µM | 3.86 µM | 2.07 µM | 4.38 µM | 1.86 µM | 3.39 µM | 1.04 µM | 2.48 µM | 0.402 µM | 1.59 µM | 1.25 µM | 2.57 µM | 2.16 µM | 5.68 µM |  |  |
